Consider one compound from paper PMC6268972, “Antiproliferative, Antimicrobial and Apoptosis Inducing Effects of Compounds Isolated from Inula viscosa” (Molecules, 2012).

One test deals with MCF-7 cells. As to the kind of experiment: Scanning electron microscopy of MCF-7 cells. Conditions: 15 µg/mL compound (vincristin sulfate 40 nM), 48 h. In kind it is cell-based, human. The protocol: MCF-7 cells were cultured in complete DMEM containing either 15 µg/mL of 3-O-methylquercetin or 3,3′-di-O-methylquercetin and incubated for 48 h in humidified CO2 incubator. Negative control cells were incubated with complete DMEM and positive control cells received complete DMEM containing 40 nM vincristin sulfate. Treated cells were fixed with 3% glutaraldehyde for 1.5 h followed by osmium tetroxide (2% in PBS) for 1 h. After fixation, cells were washed in PBS and sequentially dehydrated using 30%, 70%, and 100% ethanol. Fixed cells were attached to a metal stubs and sputter coated with platinum by using Emitech K550X coating unit (Qourum Technology, West Sussex, UK). The coated specimens were viewed using Inspect F50/FEG scanning electron microscope (FEI, Eindhoven, The Netherlands) at accelerating voltage of 2–5 kV. Bacillus cereus cells treated with 3,3′-di-O-methylquercetin for 24 h were collected by centrifugation and washed with sodium phosphate buffer. Following that, the samples were fixed in 2.5% glutaraldehyde in 0.1 M phosphate buffer, pH 7.3, at 4 °C overnight, and postfixed in 1% osmium tetroxide in the phosphate buffer for 1 h at room temperature. Bacterial cells were dehydrated with sequential ethanol concentrations (30–100%) and coated for the observations under scanning electron microscope.

The next test relates to Candida albicans. Put plainly: Microtiter plate dilution MIC, C. albicans. In kind it is cell-based. Conditions: Candida albicans, ATCC90028; ATCC 90028, malt extract broth, 24 h, 100% inhibition; read-out: Minimum inhibitory concentration (MIC) C.a. The protocol:
The microbial strains used in this study were Escherichia coli (ATCC 10798), Salmonella typhimurium (ATCC14028), Methicillin resistant Staphylococcus aureus (MRSA, Clinical isolate), Bacillus cereus (Toxigenic strain TS), and Candida albicans (ATCC 90028). Bacterial strains were stocked onto nutrient agar slant at 4 °C, and Candida albicans was stocked onto malt agar slant at 4 °C.
The microtiter plate dilution method was used to determine the MIC (minimum inhibitory concentration) of compounds under study. Sterile 96-well microplates (Nunc) were used for the assay. Stock compounds were dissolved in DMSO so that the final concentrations in micro wells were less than 1% DMSO and solvent controls were run at these concentrations. Positive controls of penicillin G and tetracycline (Oxoid, Hampshire, UK) were prepared at the following concentrations 2, 4, 8, 16, 31, 62.5, 125, and 250 μg/mL. 1% DMSO was used as a solvent control. Compounds were diluted to twice the desired initial test concentration (250 µg/mL) with Muller Hinton broth (MHB) (Oxoid). All wells, except the first were filled with MHB (50 μL). Compounds (100 μL) were added to the first well and serial two-fold dilutions were made down to the desired minimum concentration (2 μg/mL). An over-night culture of bacteria suspended in MHB was adjusted to turbidity equal to 0.5 McFarland standard. The plates were inoculated with bacterial suspension (50 μL/well) and incubated at 37 °C for 24 h. Then the turbidity was measured using micro-plate reader (Biotek) at 620 nm wavelength. The same procedure was used to determine the antifungal activity of compounds against Candida albicans. The medium used was malt extract broth. The yeast cells were suspended in 0.85% saline, with an optical density equivalent to 0.5 McFarland standard, and diluted 1:100 in malt extract broth to obtain the working concentration. After 24 h incubation with each compound, the turbidity was measured at 530 nm wavelength using a spectrophotometer (Biotek). Percentage inhibition for tested microorganisms was calculated using the following formula:
MIC was determined as the lowest concentration of the compound that causes complete inhibition (100%) of each microorganism.

Values after ≈ are worked out from the molar mass of the structure shown.

In the case of `COc1cc(-c2oc3cc(O)cc(O)c3c(=O)c2OC)ccc1O` [3,3′-di-O-Methylquercetin], in the test with MCF-7 cells, the “Cytomorphological alterations (scanning electron microscopy)” value was “cell shrinkage, membrane blebbing, loss of contact with neighboring cells, and formation of apoptotic bodies”. In addition, in the test on Candida albicans, the MIC was 250 µg/mL (≈ 757 µM).
